Results taken from patent publication US8642594B2, “Substituted thieno[2,3-d]pyrimidines as HSP90 inhibitors” (Vernalis (R&D) Limited, priority 2003, dated 2014).

Target: T1, Human full-length Hsp90 (Homo sapiens, UniProt P08238)
T1 construct: E. coli expressed human full-length HSP90 protein, purified >95%; made in house; host or cells: E. coli
Test: Fluorescence polarization assay (competitive binding to HSP90, probe RBT0045864-FAM)
Details: not given
Procedure: Fluorescence Polarization Assay
Fluorescence polarization {also known as fluorescence anisotropy} measures the rotation of a fluorescing species in solution, where the larger molecule the more polarized the fluorescence emission. When the fluorophore is excited with polarized light, the emitted light is also polarized. The molecular size is proportional to the polarization of the fluorescence emission.
The fluoroscein-labelled probe—RBT0045864-FAM—
Test compound is added to the assay plate, left to equilibrate and the anisotropy measured again. Any change in anisotropy is due to competitive binding of compound to HSP90, thereby releasing probe.
Stored at room temperature. • 3) BSA (bovine serum albumen) 10 mg/ml (New England Biolabs #B9001S) • 4) 20 mM probe in 100% DMSO stock concentration. Stored in the dark at RT. Working concentration is 200 nM diluted in AR water and stored at 4° C. […] Protocol • 1) Add 100 μl 1× buffer to wells 11A and 12A (=FP BLNK) • 2) Prepare assay mix—all reagents are kept on ice with a lid on the bucket as the probe is light-sensitive.
This gives 2.5 mM {50×} stock cpd—assuming cpds 20 mM. • 4) Repeat for wells A2 to A10. Control in columns 11 and 12. • 5) Transfer 5 μl from row A to row B—not column 12. Mix well. • 6) Transfer 5 μl from row B to row C. […] Add 2 μl of 100 mM standard cpd to wells B12-H12 {is positive control} • 13) The Z′ factor is calculated from zero controls and positive wells.

T1 sequence (P08238 whole entry): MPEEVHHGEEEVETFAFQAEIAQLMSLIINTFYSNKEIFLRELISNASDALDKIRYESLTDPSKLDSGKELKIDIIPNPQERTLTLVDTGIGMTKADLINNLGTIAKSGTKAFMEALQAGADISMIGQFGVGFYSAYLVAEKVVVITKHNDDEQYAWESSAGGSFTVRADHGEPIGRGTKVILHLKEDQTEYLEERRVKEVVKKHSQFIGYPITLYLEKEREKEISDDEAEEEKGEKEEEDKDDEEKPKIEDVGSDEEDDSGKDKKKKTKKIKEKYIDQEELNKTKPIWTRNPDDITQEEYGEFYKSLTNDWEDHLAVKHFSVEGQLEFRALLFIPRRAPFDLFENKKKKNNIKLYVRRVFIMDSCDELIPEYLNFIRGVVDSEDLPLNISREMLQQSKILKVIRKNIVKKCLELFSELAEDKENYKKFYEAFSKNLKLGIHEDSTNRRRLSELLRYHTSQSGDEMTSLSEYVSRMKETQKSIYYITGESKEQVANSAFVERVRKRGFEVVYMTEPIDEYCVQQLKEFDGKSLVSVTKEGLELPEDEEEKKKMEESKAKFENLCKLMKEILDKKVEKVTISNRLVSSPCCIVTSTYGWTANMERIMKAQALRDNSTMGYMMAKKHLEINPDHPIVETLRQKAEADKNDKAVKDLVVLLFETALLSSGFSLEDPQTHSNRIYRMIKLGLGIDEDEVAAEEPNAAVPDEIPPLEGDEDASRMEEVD

| SMILES | IC50 |
| --- | --- |
| CCNC(=O)c1cc2c(-c3ccc(Cl)cc3)nc(N)nc2s1 [Example 173] | < 10 µM |
| CCNC(=O)c1cc2c(-c3cc(OCCN(CC)CC)c(Cl)cc3Cl)nc(N)nc2s1 [Example 235, 2-Amino-4-[2,4-dichloro-5-(2-diethylamino-ethoxy)-phenyl]-thieno[2,3-d]pyrimidine-6-carboxylic acid ethyl amide] | < 10 µM |
| CCNC(=O)c1cc2c(-c3cc(OCCN(C)C)c(Cl)cc3Cl)nc(N)nc2s1 [Example 254] | < 10 µM |
| CCNC(=O)c1cc2c(-c3ccccc3)nc(N)nc2s1 [Example 43, 2-Amino-4-phenyl-thieno[2,3-d]pyrimidine-6-carboxylic acid ethylamide] | < 10 µM |
| CCNC(=O)c1cc2c(-c3ccc(C)cc3C)nc(N)nc2s1 [Example 80] | < 10 µM |

Same assay, conditions: fluorescence polarization assay, activity range; read-out: Hsp90 FP IC50

| SMILES | IC50 |
| --- | --- |
| Nc1nc(-c2ccccc2)c2cc(C(=O)NCCc3cccs3)sc2n1 [Example 55] | > 10 µM |
| CCNC(=O)c1cc2c(/C=C/c3ccccc3)nc(N)nc2s1 [Example 286] | < 10 µM |
| CCNC(=O)c1cc2c(-c3cc(CNCCc4cnc[nH]4)ccc3C)nc(N)nc2s1 [Example 204] | < 10 µM |
| CCOC(=O)c1cc2c(NC3CCCCC3)nc(N)nc2s1 [Example 24] | > 10 µM |
| Nc1nc(-c2ccc(Cl)cc2Cl)c2cc(C(=O)Nc3cccc(Cl)c3)sc2n1 [Example 109] | < 10 µM |
| CCNC(=O)c1cc2c(-c3cc(CNCC(C)C)ccc3C)nc(N)nc2s1 [Example 218] | < 10 µM |
| CCOC(=O)c1cc2c(/C=C/c3ccccc3)nc(N)nc2s1 [Example 278] | < 10 µM |
| CCOC(=O)c1cc2c(-c3ccc(C#N)cc3)nc(N)nc2s1 [Example 16] | < 10 µM |
| CCNC(=O)c1cc2c(-c3cc(CNCCC(N)=O)ccc3C)nc(N)nc2s1 [Example 208] | < 10 µM |
| CCOC(=O)c1cc2c(-c3cc(Cl)ccc3C)nc(N)nc2s1 [Example 178] | < 10 µM |
| CCNC(=O)c1cc2c(-c3cc(CNCc4ccc(S(N)(=O)=O)cc4)ccc3C)nc(N)nc2s1 [Example 207] | < 10 µM |
| CCOC(=O)c1cc2c(C(=O)c3cccc(F)c3)nc(N)nc2s1 [Example 303] | < 10 µM |
| CCOC(=O)c1cc2c(C(=O)c3ccc(OC)cc3)nc(N)nc2s1 [Example 297] | < 10 µM |
| CCCCOc1ccc(-c2nc(N)nc3sc(C(=O)OCC)cc23)c(C)c1 [Example 186] | > 10 µM |
| Cc1ccc(-c2nc(N)nc3sc(C(=O)NC(C)C)cc23)c(C)c1 [Example 81] | < 10 µM |
| CCOC(=O)c1cc2c(-c3cccc(C)c3C)nc(N)nc2s1 [Example 87] | < 10 µM |
| CCOC(=O)c1cc2c(-c3cc(Cl)ccc3Cl)nc(N)nc2s1 [Example 106] | > 10 µM |
| CNC(=O)c1cc2c(N(C)Cc3ccccc3)nc(N)nc2s1 [Example 67] | > 10 µM |
| Cc1c(C(N)=O)sc2nc(N)nc(-c3ccccc3)c12 [Example 75, 2-Amino-5-methyl-4-phenyl-thieno[2,3-d]pyrimidine-6-carboxylic acid amide] | > 10 µM |
| CCNC(=O)c1cc2c(-c3cc(O)c(Cl)cc3Cl)nc(N)nc2s1 [Example 240] | < 10 µM |
| CCNC(=O)c1cc2c(-c3cc(CNCCO)ccc3C)nc(N)nc2s1 [Example 205] | < 10 µM |
| C[C@H](NC(=O)c1cc2c(-c3ccc(Cl)cc3Cl)nc(N)nc2s1)c1ccccc1 [Example 139] | < 10 µM |
| CCOC(=O)c1cc2c(-c3ccc(CN4CCCCC4)cc3)nc(N)nc2s1 [Example 33, 2-Amino-4-(4-piperidin-1-ylmethyl-phenyl)-thieno[2,3-d]pyrimidine-6-carboxylic acid ethyl ester] | > 10 µM |
| CCCCNC(=O)c1cc2c(-c3ccccc3)nc(N)nc2s1 [Example 48] | > 10 µM |

| SMILES | IC50 |
| --- | --- |
| Nc1nc(-c2ccc(Cl)cc2Cl)c2cc(C(=O)NCc3ccc4c(c3)OCO4)sc2n1 [Example 119] | < 10 µM |
| Cc1ccc(-c2nc(N)nc3sc(C(=O)NCCc4c[nH]cn4)cc23)c(C)c1 [Example 86] | < 10 µM |
| CCOC(=O)c1cc2c(-c3ccc(OCC(=O)O)cc3C)nc(N)nc2s1 [Example 193] | > 10 µM |
| CCOC(=O)c1cc2c(-c3ccc(C)cc3Cl)nc(N)nc2s1 [Example 79] | < 10 µM |
| CCC/C=C/c1nc(N)nc2sc(C(=O)OCC)cc12 [Example 292] | > 10 µM |
| CCNC(=O)c1cc2c(-c3cc(OCCN4CCC(F)CC4)c(Cl)cc3Cl)nc(N)nc2s1 [Example 249] | < 10 µM |
| CCCN(C)C(=O)c1cc2c(-c3ccc(C)cc3C)nc(N)nc2s1 [Example 93] | > 10 µM |
| NC(=O)[C@H](Cc1ccc(O)cc1)NC(=O)c1cc2c(-c3ccc(Cl)cc3Cl)nc(N)nc2s1 [Example 163] | < 10 µM |
| CCOC(=O)c1cc2c(-c3ccc(OCC(N)=O)cc3C)nc(N)nc2s1 [Example 191] | < 10 µM |
| Nc1nc(-c2ccc(Cl)cc2Cl)c2cc(C(=O)NCc3ccccn3)sc2n1 [Example 154] | < 10 µM |
| CCNC(=O)c1cc2c(-c3cc(CNCC4CCCO4)ccc3C)nc(N)nc2s1 (stereo not shown) [Example 223] | < 10 µM |
| CCNC(=O)c1cc2c(OCc3ccccc3)nc(N)nc2s1 [Example 294] | > 10 µM |
| CCNC(=O)c1cc2c(-c3ccc(Cl)cc3C)nc(N)nc2s1 [Example 151] | < 10 µM |
| Nc1nc(-c2ccc(Cl)cc2Cl)c2cc(C(=O)NCc3ccncc3)sc2n1 [Example 141] | < 10 µM |
| CCOC(=O)c1cc2c(NCCCN3CCCC3=O)nc(N)nc2s1 [Example 31] | > 10 µM |
| CCOC(=O)c1cc2c(-c3ccccn3)nc(N)nc2s1 [Example 104] | > 10 µM |
| CCOC(=O)c1cc2c(C(=O)c3ccc4c(c3)OCO4)nc(N)nc2s1 [Example 298] | < 10 µM |
| CCOC(=O)c1cc2c(-c3ccc(Cl)cc3)nc(N)nc2s1 [Example 169] | < 10 µM |
| Nc1nc(-c2ccc(Cl)cc2Cl)c2cc(C(=O)NCC(O)CO)sc2n1 (stereo not shown) [Example 128] | < 10 µM |
| CCOC(=O)c1cc2c(C(=O)c3cccc(Cl)c3)nc(N)nc2s1 [Example 304] | < 10 µM |
| CCOC(=O)c1cc2c(-c3ccc(OC(C)C)cc3)nc(N)nc2s1 [Example 5] | > 10 µM |
| Nc1nc(-c2ccccc2)c2cc(C(=O)NCCO)sc2n1 [Example 72] | < 10 µM |
| CCOC(=O)c1cc2c(C(C)c3ccccc3)nc(N)nc2s1 (stereo not shown) [Example 285] | < 10 µM |
| CCOC(=O)c1cc2c(-c3ccc(C(F)(F)F)cc3C(F)(F)F)nc(N)nc2s1 [Example 4] | < 10 µM |

| SMILES | IC50 |
| --- | --- |
| CCOC(=O)c1cc2c(C(=O)c3ccc(Cl)c(F)c3)nc(N)nc2s1 [Example 313] | < 10 µM |
| CCOC(=O)c1cc2c(C(=O)c3ccccc3Cl)nc(N)nc2s1 [Example 302] | < 10 µM |
| CCNC(=O)c1cc2c(-c3cc(CNCc4ccc(C)o4)ccc3C)nc(N)nc2s1 [Example 211] | < 10 µM |
| Nc1nc(-c2ccc(Cl)cc2Cl)c2cc(C(=O)NCc3ccco3)sc2n1 [Example 125] | < 10 µM |
| CN1CCC(NC(=O)c2cc3c(-c4ccc(Cl)cc4Cl)nc(N)nc3s2)CC1 [Example 137] | < 10 µM |
| CN(C)CCCNC(=O)c1cc2c(-c3ccc(Cl)cc3Cl)nc(N)nc2s1 [Example 102] | < 10 µM |
| CCNC(=O)c1cc2c(-c3cc(CNCc4ccccc4)c(C)cc3C)nc(N)nc2s1 [Example 232] | < 10 µM |
| Nc1nc(-c2ccc(Cl)cc2Cl)c2cc(C(=O)NCc3cccc(C(F)(F)F)c3)sc2n1 [Example 122] | < 10 µM |
| CCOC(=O)c1cc2c(-c3ccc(F)cc3)nc(N)nc2s1 [Example 10] | > 10 µM |
| Nc1nc(-c2ccc(Cl)cc2Cl)c2cc(C(=O)NC3CCCC3)sc2n1 [Example 153] | < 10 µM |
| Nc1nc(-c2ccccc2)c2cc(C(=O)NCCCc3ccccc3)sc2n1 [Example 50] | > 10 µM |
| CCOC(=O)c1cc2c(NC(c3ccccc3)c3ccccc3)nc(N)nc2s1 [Example 25] | > 10 µM |
| CCOC(=O)c1cc2c(-c3ccccc3Br)nc(N)nc2s1 [Example 97] | < 10 µM |
| CCOC(=O)c1cc2c(-c3ccccc3Cl)nc(N)nc2s1 [Example 9] | < 10 µM |
| CCOC(=O)c1cc2c(-c3cncc4ccccc34)nc(N)nc2s1 [Example 293] | < 10 µM |
| C=CCOc1ccc(-c2nc(N)nc3sc(C(=O)OCC)cc23)c(C)c1 [Example 187] | < 10 µM |
| CCOC(=O)c1cc2c(C(=O)c3ccc(OC)c(F)c3)nc(N)nc2s1 [Example 314] | < 10 µM |
| Nc1nc(-c2ccc(Cl)cc2Cl)c2cc(C(=O)NCCCS(=O)(=O)O)sc2n1 [Example 144] | < 10 µM |
| CCNC(=O)c1cc2c(-c3cc(OCc4ccccc4)c(Cl)cc3Cl)nc(N)nc2s1 [Example 241] | < 10 µM |
| Nc1nc(-c2ccc(Cl)cc2Cl)c2cc(C(=O)NCc3ccc(Cl)cc3)sc2n1 [Example 121] | < 10 µM |
| CCOC(=O)c1cc2c(-c3csc4ccccc34)nc(N)nc2s1 [Example 290] | > 10 µM |
| CCNC(=O)c1cc2c(-c3cc(OCc4noc(-c5ccccc5OC)n4)c(Cl)cc3Cl)nc(N)nc2s1 [Example 269] | < 10 µM |
| CCNC(=O)c1cc2c(-c3cc(OCc4ccccn4)c(Cl)cc3Cl)nc(N)nc2s1 [Example 261] | < 10 µM |
